The target of assay [1] is CDK2/Cyclin A2 (Homo sapiens) (UniProt P24941+P20248). Nature of the assay: Inhibition of CDK2/CyclinA (unknown origin) using ULingt-4E-BP as substrate at 25 nM after 1 hr in presence of ATP by fluorescence assay relative to control. In kind it is protein-complex assay.
Assay [2] addresses Cyclin-dependent kinase 5/CDK5 activator 1 (Homo sapiens) (UniProt Q00535+Q15078). The assay can be described thus: Inhibition of CDK5/p35 (unknown origin) using ULingt-4E-BP as substrate at 25 nM after 1 hr in presence of ATP by fluorescence assay relative to control. In kind it is protein-complex assay.

For 23 compounds, inhibition results are on record in ChEMBL document CHEMBL4043187, “Synthesis and biological evaluation of N9-cis-cyclobutylpurine derivatives for use as cyclin-dependent kinase (CDK) inhibitors” (Bioorg Med Chem Lett, 2017).

Cyclin-dependent kinase 5/CDK5 activator 1 (Homo sapiens), sequence (Q00535 whole entry): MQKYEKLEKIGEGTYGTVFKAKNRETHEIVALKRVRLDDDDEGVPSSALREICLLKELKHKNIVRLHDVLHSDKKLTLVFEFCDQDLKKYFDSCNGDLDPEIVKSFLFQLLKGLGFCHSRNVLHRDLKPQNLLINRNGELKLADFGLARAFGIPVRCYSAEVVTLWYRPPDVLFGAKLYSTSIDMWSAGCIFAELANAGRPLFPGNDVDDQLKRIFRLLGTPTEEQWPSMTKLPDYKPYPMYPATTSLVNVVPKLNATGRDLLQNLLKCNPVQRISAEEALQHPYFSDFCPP
Cyclin-dependent kinase 5/CDK5 activator 1 (Homo sapiens), sequence (Q15078 99-307 partner limits assumed): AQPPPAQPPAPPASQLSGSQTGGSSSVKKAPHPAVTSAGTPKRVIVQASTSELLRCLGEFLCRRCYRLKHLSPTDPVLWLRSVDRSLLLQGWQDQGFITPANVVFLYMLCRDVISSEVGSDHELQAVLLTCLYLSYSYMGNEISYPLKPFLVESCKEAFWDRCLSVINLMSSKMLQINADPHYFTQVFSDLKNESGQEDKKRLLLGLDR

Take `Cc1cccc(C(=O)N[C@H]2C[C@@H](n3cnc4c(NCc5ccccc5Cl)ncnc43)C2)n1`: the inhibition – broadly, the share of the control response that was lost under treatment – in assay [1] was below 50%; in assay [2], 59%.

For the compound `Cc1cccc(C(=O)N[C@H]2C[C@@H](n3cnc4c(NCc5cccc(C(F)(F)F)c5)ncnc43)C2)n1`, the inhibition was below 50% in assay [1] and 72% in assay [2].

`Cc1ccc(C(=O)N[C@H]2C[C@@H](n3cnc4c(NCc5cccnc5)ncnc43)C2)cc1C`: the inhibition in assay [1] and in assay [2] was below 50% in each case.

Consider `Cc1cccc(C(=O)N[C@H]2C[C@@H](n3cnc4c(Nc5cccc(Cl)c5)ncnc43)C2)n1`, for which the inhibition in assay [1] is below 50%; in assay [2], 60%.

In the case of `Cc1cccc(C(=O)N[C@H]2C[C@@H](n3cnc4c(NCc5ccccc5F)ncnc43)C2)n1`, the inhibition was below 50% in assay [1] and 55% in assay [2].

Take `COc1cc(Cl)ccc1C(=O)N[C@H]1C[C@@H](n2cnc3c(NCc4cccnc4)ncnc32)C1`: the inhibition in assay [1] and in assay [2] was below 50% throughout.

`CS(=O)(=O)N1CCC(C(=O)N[C@H]2C[C@@H](n3cnc4c(NCc5cccnc5)ncnc43)C2)CC1`: the values for the inhibition in assay [1] and in assay [2] were 62% and 48%, respectively.

In the case of `COc1ccc(C(=O)N[C@H]2C[C@@H](n3cnc4c(NCc5cccnc5)ncnc43)C2)cc1`, the inhibition in assay [1] and in assay [2] was below 50% throughout.

As for `CN(C)c1cccc(C(=O)N[C@H]2C[C@@H](n3cnc4c(NCc5cccnc5)ncnc43)C2)c1`, the inhibition in assay [1] and in assay [2] was below 50% throughout.

On to `O=C(N[C@H]1C[C@@H](n2cnc3c(NCc4cccnc4)ncnc32)C1)C1CCOCC1`, for which the inhibition in assay [1] and in assay [2] was below 50% in each case.

As for `CN1CCCC1C(=O)N[C@H]1C[C@@H](n2cnc3c(NCc4cccnc4)ncnc32)C1` (stereo partly specified), the inhibition in assay [1] and in assay [2] was below 50% throughout.

As to `Cc1cccc(C(=O)N[C@H]2C[C@@H](n3cnc4c(NCc5ccccc5C)ncnc43)C2)n1`, the inhibition in assay [1] and in assay [2] was below 50% in each case.

For the compound `Cc1cccc(C(=O)N[C@H]2C[C@@H](n3cnc4c(NCc5ccncc5)ncnc43)C2)n1`, the inhibition in assay [1] and in assay [2] was below 50% in each case.

Regarding `COc1ccc(CNc2ncnc3c2ncn3[C@H]2C[C@@H](NC(=O)c3cccc(C)n3)C2)cc1`, the inhibition in assay [1] worked out at 57%; in assay [2] it was 81%.

Turning to `O=C(N[C@H]1C[C@@H](n2cnc3c(NCc4cccnc4)ncnc32)C1)c1c(F)cccc1F`, the inhibition was found to be 78% in assay [1] and 57% in assay [2].

With `O=C(N[C@H]1C[C@@H](n2cnc3c(NCc4cccnc4)ncnc32)C1)c1ccccc1`, the inhibition in assay [1] and in assay [2] was below 50% each time.

Regarding `COc1ccccc1CNc1ncnc2c1ncn2[C@H]1C[C@@H](NC(=O)c2cccc(C)n2)C1`, the inhibition in assay [1] and in assay [2] was below 50% in each case.

As to `O=C(N[C@H]1C[C@@H](n2cnc3c(NCc4cccnc4)ncnc32)C1)c1c(Cl)cccc1Cl`, the inhibition is 82% in assay [1] and 64% in assay [2].

On to `O=C(N[C@H]1C[C@@H](n2cnc3c(NCc4cccnc4)ncnc32)C1)c1cnccn1`, for which the inhibition in assay [1] and in assay [2] was below 50% in each case.

For `O=C(CC1CCCCC1)N[C@H]1C[C@@H](n2cnc3c(NCc4cccnc4)ncnc32)C1`, the inhibition in assay [1] and in assay [2] was below 50% in each case.

Turning to `Cc1cccc(C(=O)N[C@H]2C[C@@H](n3cnc4c(NCc5ccc(Oc6ccccc6)cc5)ncnc43)C2)n1`, the inhibition in assay [1] and in assay [2] was below 50% in each case.

As to `Cc1cccc(C(=O)N[C@H]2C[C@@H](n3cnc4c(NCc5ccccn5)ncnc43)C2)n1`, the inhibition in assay [1] stood at 49%; in assay [2], 54%.

For the compound `Cc1cccc(C(=O)N[C@H]2C[C@@H](n3cnc4c(Nc5cccc(F)c5)ncnc43)C2)n1`, the inhibition in assay [1] and in assay [2] was below 50% each time.
